# Test results taken from patent US12157730B2, “Heteroaryl derivative, method for producing same, and pharmaceutical composition comprising same as effective component” (VORONOI INC., priority 2019, dated 2024).
# Target: T1, Ba/F3 cell EGFR Exon20 ins NPH (Homo sapiens, UniProt P00533, INS773NPH)
# T1 construct: expressed in transfected cells; host or cells: Ba/F3
# Assay: Ba/F3 cell proliferation suppression, EGFR Exon20 ins NPH
# Type: cell-based
# Conditions: GI50 class; Ba/F3 cell line with NPH inserted at Exon20 of EGFR; 72 hours
# Summary of the method: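 Growth suppression determined as GI50 following 72 h exposure across 12 concentrations up to 50 um, with viability by luminescent ATP assay (CellTiter-Glo).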
row,SMILES,Ba/F3 (NPH) Activity
1,"C=CC(=O)Nc1cc(Nc2cc(N3OCC[C@@H]3c3cc(F)cc(F)c3)ncn2)c(OC)cc1N1CCC(N2CCC3(CC2)CC3)CC1 [compound 700, N-(2-(4-(6-azaspiro[2.5]octan-6-yl)piperidine-1-yl)-5-((6-((R)-3-(3,5-difluorophenyl)isoxazolidine-2-yl)pyrimidine-4-yl)amino)-4-methoxyphenyl) acrylamide]",A (GI50 < 50 nM)
2,"C=CC(=O)Nc1cc(Nc2cc(N3OCC[C@@H]3c3ccc(F)c(Cl)c3F)ncn2)c(OC)cc1N1CCC(N2CCN(C)CC2)CC1 [compound 605, N-(5-((6-((R)-3-(3-chloro-2,4-difluorophenyl)isoxazolidine-2-yl)pyrimidine-4-yl)amino)-4-methoxy-2-(4-(4-methylpiperazine-1-yl)piperidine-1-yl)phenyl) acrylamide]",A (GI50 < 50 nM)
3,"C=CC(=O)Nc1cc(Nc2cc(N3OCC[C@@H]3c3ccc(F)c(Cl)c3)ncn2)c(OC)cc1N1CCC(N2CCN(C3CC3)C(C)(C)C2)CC1 [Example 181, N-(5-((6-((R)-3-(3-chloro-4-fluorophenyl)isoxazolidine-2-yl)pyrimidine-4-yl)amino)-2-(4-(4-cyclopropyl-3,3-dimethylpiperazine-1-yl)piperidine-1-yl)-4-methoxyphenyl) acrylamide]",A (GI50 < 50 nM)
4,"C=CC(=O)Nc1cc(Nc2cc(N3OCC[C@@H]3c3ccc(F)c(F)c3)ncn2)c(OC)cc1N1CCC(N2CCOCC2)CC1 [compound 503, N-(5-((6-((R)-3-(3,4-difluorophenyl)isoxazolidine-2-yl)pyrimidine-4-yl)amino)-4-methoxy-2-(4-morpholinopiperidine-1-yl)phenyl)acrylamide]",A (GI50 < 50 nM)
5,"C=CC(=O)Nc1cc(Nc2cc(N3OCC[C@@H]3c3cc(F)cc(F)c3)ncn2)c(OC)cc1N1CC[C@H](N2CCOCC2)C1 [Example 272, N-(5-((6-((R)-3-(3,5-difluorophenyl)isoxazolidine-2-yl)pyrimidine-4-yl)amino)-4-methoxy-2-((S)-3-morpholinopyrolidine-1-yl)phenyl)acrylamide]",B (50 nM ≤ GI50 < 500 nM)
6,"C=CC(=O)Nc1cc(Nc2cc(N3OCC[C@@H]3c3ccc(Cl)c(F)c3)ncn2)c(OC)cc1N1CCC(N2CCC(N(C)C)CC2)CC1 [compound 803, N-(5-((6-((R)-3-(4-chloro-3-fluorophenyl)isoxazolidine-2-yl)pyrimidine-4-yl)amino)-2-(4-(dimethylamino)-[1,4'-bipiperidine]-1'-yl)-4-methoxyphenyl) acrylamide]",A (GI50 < 50 nM)

# Further lines, results first:
row,Ba/F3 (NPH) Activity,SMILES
1,A (GI50 < 50 nM),"C=CC(=O)Nc1cc(Nc2cc(N3OCC[C@@H]3c3cc(F)ccc3F)ncn2)c(OC)cc1N1CCC(N2CCN(C)[C@@H](C)C2)CC1 [compound 850, N-(5-((6-((R)-3-(2,5-difluorophenyl)isoxazolidine-2-yl)pyrimidine-4-yl)amino)-2-(4-((S)-3,4-dimethylpiperazine-1-yl)piperidine-1-yl)-4-methoxyphenyl) acrylamide]"
2,B (50 nM ≤ GI50 < 500 nM),"C=CC(=O)Nc1cc(Nc2cc(N3OCC[C@@H]3Cc3cccc(Cl)c3C)ncn2)c(OC)cc1N1CCN(C2CC2)CC1 [compound 1026, N-(5-((6-((S)-3-(3-chloro-2-methylbenzyl)isoxazolidine-2-yl)pyrimidine-4-yl)amino)-2-(4-cyclopropylpiperazine-1-yl)-4-methoxyphenyl) acrylamide]"
3,B (50 nM ≤ GI50 < 500 nM),"C=CC(=O)Nc1cc(Nc2cc(N3OCC[C@@H]3Cc3cccc(N(C)C)c3)ncn2)c(OC)cc1N1CCC(N2CCN(C3CC3)[C@H](C)C2)CC1 [compound 1046, N-(2-(4-((R)-4-cyclopropyl-3-methylpiperazine-1-yl)piperidine-1-yl)-5-((6-((S)-3-(3-(dimethylamino)benzyl)isoxazolidine-2-yl)pyrimidine-4-yl)amino)-4-methoxyphenyl) acrylamide]"
